Reference: patent US20060178408A1, “Nicotinamide derivatives useful as pde4 inhibitors” (priority 2003, published 2006)

Tested on: TNFα release from human peripheral blood mononuclear cells
Assay: Inhibition of LPS-stimulated TNFα release from human peripheral blood mononuclear cells (TNFα screen, ELISA)
Format: cell-based
Settings: LPS-stimulated human PBMC, 18 hours incubation, TNFα in supernatant by ELISA
Protocol: Venous blood is collected from healthy volunteers and the mononuclear cells purified by centrifugation through Histopaque (Ficoll) cushions. TNFα production from these cells is stimulated by addition of lipopolysaccharide. After 18 hours incubation in the presence of LPS, the cell supernatant is removed and the concentration of TNFα in the supernatant determined by ELISA.

With `O=C(N[C@H]1CC[C@@H](NC(=O)c2cc(Cl)cc(Cl)c2O)CC1)c1cc(F)cnc1OC1CCSCC1` [Example 26, Syn-N-[4-(3,5-Dichloro-2-hydroxy-benzoylamino)-cyclohexyl]-5-fluoro-2-(tetrahydro-thiopyran-4-yloxy)-nicotinamide] the IC50 was 0.014 µM.
